{"source": "paper PMC12638379", "about": "“An innovative approach to development of new pyrazolylquinolin-2-one hybrids as dual EGFR and BRAF^V600E inhibitors” (Molecular Diversity, 2025)", "test_system": "NCI 60 cancer cell lines", "assay": "NCI anticancer screening over a panel of 60 cancer cells, single concentration 10 µM", "format": "cell-based, human", "conditions": "Homo sapiens, read-out: % Growth Inhibition (GI %)", "in_short": "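Primary single-dose screen at 10 µM over the NCI panel of 60 human tumour cell lines (leukemia, CNS, lung, colon, kidney, ovary, breast, prostate). The standard NCI Developmental Therapeutics Program protocol was used.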", "note": "Where two headings read alike, the source gives them in different places.", "data": [{"smiles": "COc1ccc2[nH]c(=O)cc(-n3ncc(/C(C)=N/Nc4ccc(C(=O)O)cc4)c3C)c2c1", "note": "[Compound 4h, (E)-4-(2-(1-(1-(6-methoxy-2-oxo-1,2-dihydroquinolin-4-yl)-5-methyl-1H-pyrazol-4-yl)ethylidene)hydrazineyl)benzoic acid]", "values": [{"measurement": "inhibition at 10 µM", "setting": "786-0, Renal cancer 786-0, 10 μM", "value": "< 5", "unit": "%"}, {"measurement": "inhibition at 10 µM", "setting": "A498, Renal cancer A498, 10 μM", "value": "< 5", "unit": "%"}, {"measurement": "inhibition at 10 µM", "setting": "A549, Non-small cell lung cancer A549/ATCC, 10 μM", "value": "< 5", "unit": "%"}, {"measurement": "inhibition at 10 µM", "setting": "ACHN, Renal cancer ACHN, 10 μM", "value": "< 5", "unit": "%"}, {"measurement": "inhibition at 10 µM", "setting": "BT-549, Breast cancer BT-549, 10 μM", "value": "< 5", "unit": "%"}, {"measurement": "inhibition at 10 µM", "setting": "CAKI-1, Renal cancer CAKI-1, 10 μM", "value": "< 5", "unit": "%"}, {"measurement": "inhibition at 10 µM", "setting": "CCRF-CEM, Leukemia CCRF-CEM, 10 μM", "value": "< 5", "unit": "%"}, {"measurement": "inhibition at 10 µM", "setting": "COLO 205, Colon cancer COLO 205, 10 μM", "value": "< 5", "unit": "%"}, {"measurement": "inhibition at 10 µM", "setting": "DU-145, Prostate cancer DU-145, 10 μM", "value": "< 5", "unit": "%"}, {"measurement": "inhibition at 10 µM", "setting": "EKVX, Non-small cell lung cancer EKVX, 10 μM", "value": "< 5", "unit": "%"}, {"measurement": "inhibition at 10 µM", "setting": "HCC 2998, Colon cancer HCC-2998, 10 μM", "value": "< 5", "unit": "%"}, {"measurement": "inhibition at 10 µM", "setting": "HCT-15, Colon cancer HCT-15, 10 μM", "value": "< 5", "unit": "%"}, {"measurement": "inhibition at 10 µM", "setting": "HCT-116, Colon cancer HCT-116, 10 μM", "value": "< 5", "unit": "%"}, {"measurement": "inhibition at 10 µM", "setting": "HL-60, Leukemia HL-60(TB), 10 μM", "value": "< 5", "unit": "%"}, {"measurement": "inhibition at 10 µM", "setting": "HOP-62, Non-small cell lung cancer HOP-62, 10 μM", "value": "< 5", "unit": "%"}, {"measurement": "inhibition at 10 µM", "setting": "HOP-92, Non-small cell lung cancer HOP-92, 10 μM", "value": 38.5, "unit": "%"}, {"measurement": "inhibition at 10 µM", "setting": "HT-29, Colon cancer HT29, 10 μM", "value": "< 5", "unit": "%"}, {"measurement": "inhibition at 10 µM", "setting": "Hs-578T, Breast cancer HS 578T, 10 μM", "value": "< 5", "unit": "%"}, {"measurement": "inhibition at 10 µM", "setting": "IGROV-1, Ovarian cancer IGROV1, 10 μM", "value": "< 5", "unit": "%"}, {"measurement": "inhibition at 10 µM", "setting": "K562, Leukemia K-562, 10 μM", "value": "< 5", "unit": "%"}, {"measurement": "inhibition at 10 µM", "setting": "KM12, Colon cancer KM12, 10 μM", "value": "< 5", "unit": "%"}, {"measurement": "inhibition at 10 µM", "setting": "LOX IMVI, Melanoma LOX IMVI, 10 μM", "value": "< 5", "unit": "%"}, {"measurement": "inhibition at 10 µM", "setting": "Leukemia SR, 10 μM", "value": "< 5", "unit": "%"}, {"measurement": "inhibition at 10 µM", "setting": "MCF7, Breast cancer MCF7, 10 μM", "value": 5.52, "unit": "%"}, {"measurement": "inhibition at 10 µM", "setting": "MDA-MB-231, Breast cancer MDA-MB-231/ATCC, 10 μM", "value": 4.98, "unit": "%"}, {"measurement": "inhibition at 10 µM", "setting": "MDA-MB-435, Melanoma MDA-MB-435, 10 μM", "value": "< 5", "unit": "%"}, {"measurement": "inhibition at 10 µM", "setting": "MDA-MB-468, Breast cancer MDA-MB-468, 10 μM", "value": "< 5", "unit": "%"}, {"measurement": "inhibition at 10 µM", "setting": "MOLT-4, Leukemia MOLT-4, 10 μM", "value": "< 5", "unit": "%"}, {"measurement": "inhibition at 10 µM", "setting": "Melanoma M14, 10 μM", "value": "< 5", "unit": "%"}, {"measurement": "inhibition at 10 µM", "setting": "Melanoma MALM-3M, 10 μM", "value": "< 5", "unit": "%"}, {"measurement": "inhibition at 10 µM", "setting": "NCI-H23, Non-small cell lung cancer NCI-H23, 10 μM", "value": "< 5", "unit": "%"}, {"measurement": "inhibition at 10 µM", "setting": "NCI-H226, Non-small cell lung cancer NCI-H226, 10 μM", "value": "< 5", "unit": "%"}, {"measurement": "inhibition at 10 µM", "setting": "NCI-H322M, Non-small cell lung cancer NCI-H322M, 10 μM", "value": "< 5", "unit": "%"}, {"measurement": "inhibition at 10 µM", "setting": "NCI-H460, Non-small cell lung cancer NCI-H460, 10 μM", "value": "< 5", "unit": "%"}, {"measurement": "inhibition at 10 µM", "setting": "NCI-H522, Non-small cell lung cancer NCI-H522, 10 μM", "value": "< 5", "unit": "%"}, {"measurement": "inhibition at 10 µM", "setting": "NCI/ADR-RES, Ovarian cancer NCI/ADR-RES, 10 μM", "value": "< 5", "unit": "%"}, {"measurement": "inhibition at 10 µM", "setting": "OVCAR-3, Ovarian cancer OVCAR-3, 10 μM", "value": "< 5", "unit": "%"}, {"measurement": "inhibition at 10 µM", "setting": "OVCAR-4, Ovarian cancer OVCAR-4, 10 μM", "value": "< 5", "unit": "%"}, {"measurement": "inhibition at 10 µM", "setting": "OVCAR-5, Ovarian cancer OVCAR-5, 10 μM", "value": "< 5", "unit": "%"}, {"measurement": "inhibition at 10 µM", "setting": "OVCAR-8, Ovarian cancer OVCAR-8, 10 μM", "value": "< 5", "unit": "%"}, {"measurement": "inhibition at 10 µM", "setting": "Prostate cancer PC-3, 10 μM", "value": "< 5", "unit": "%"}, {"measurement": "inhibition at 10 µM", "setting": "RPMI-8226, Leukemia RPMI-8226, 10 μM", "value": "< 5", "unit": "%"}, {"measurement": "inhibition at 10 µM", "setting": "RXF 393, Renal cancer RXF 393, 10 μM", "value": "< 5", "unit": "%"}, {"measurement": "inhibition at 10 µM", "setting": "SF-268, CNS Cancer SF-268, 10 μM", "value": "< 5", "unit": "%"}, {"measurement": "inhibition at 10 µM", "setting": "SF-295, CNS Cancer SF-295, 10 μM", "value": "< 5", "unit": "%"}, {"measurement": "inhibition at 10 µM", "setting": "SF-539, CNS Cancer SF-539, 10 μM", "value": "< 5", "unit": "%"}, {"measurement": "inhibition at 10 µM", "setting": "SK-MEL-2, Melanoma SK-MEL-2, 10 μM", "value": "< 5", "unit": "%"}, {"measurement": "inhibition at 10 µM", "setting": "SK-MEL-5, Melanoma SK-MEL-5, 10 μM", "value": "< 5", "unit": "%"}, {"measurement": "inhibition at 10 µM", "setting": "SK-MEL-28, Melanoma SK-MEL-28, 10 μM", "value": "< 5", "unit": "%"}, {"measurement": "inhibition at 10 µM", "setting": "SK-OV-3, Ovarian cancer SK-OV-3, 10 μM", "value": "< 5", "unit": "%"}, {"measurement": "inhibition at 10 µM", "setting": "SN12C, Renal cancer SN12C, 10 μM", "value": "< 5", "unit": "%"}, {"measurement": "inhibition at 10 µM", "setting": "SNB-19, CNS Cancer SNB-19, 10 μM", "value": "< 5", "unit": "%"}, {"measurement": "inhibition at 10 µM", "setting": "SNB-75, CNS Cancer SNB-75, 10 μM", "value": "< 5", "unit": "%"}, {"measurement": "inhibition at 10 µM", "setting": "SW-620, Colon cancer SW-620, 10 μM", "value": "< 5", "unit": "%"}, {"measurement": "inhibition at 10 µM", "setting": "T47D, Breast cancer T-47D, 10 μM", "value": "< 5", "unit": "%"}, {"measurement": "inhibition at 10 µM", "setting": "TK-10, Renal cancer TK-10, 10 μM", "value": "< 5", "unit": "%"}, {"measurement": "inhibition at 10 µM", "setting": "U-251, CNS Cancer U251, 10 μM", "value": "< 5", "unit": "%"}, {"measurement": "inhibition at 10 µM", "setting": "UACC-62, Melanoma UACC-62, 10 μM", "value": "< 5", "unit": "%"}, {"measurement": "inhibition at 10 µM", "setting": "UACC-257, Melanoma UACC-257, 10 μM", "value": "< 5", "unit": "%"}, {"measurement": "inhibition at 10 µM", "setting": "UO-31, Renal cancer UO-31, 10 μM", "value": 22.6, "unit": "%"}]}]}
